Experimental data from ChEMBL document CHEMBL3044764, “Synthesis and herbicidal activities of 2-cyano-3-benzylaminoacrylates containing thiazole moiety” (2010).

tested on: Amaranthus retroflexus; test: Post-emergence herbicidal activity against Amaranthus retroflexus at 375 g/ha after 10 days; type: functional

| SMILES | Activity |
| --- | --- |
| CCOCCOC(=O)/C(C#N)=C(\NCc1ccc(OCc2cnc(Cl)s2)c(OC)c1)C(C)C | 59.3% |
| COCCOC(=O)/C(C#N)=C(\NCc1ccc(OCc2cnc(Cl)s2)c(OC)c1)C(C)C | 73.6% |
| COCCOC(=O)/C(C#N)=C(\NCc1ccc(OCc2cnc(Cl)s2)cc1)C(C)C | 98.1% |
| CCOCCOC(=O)/C(C#N)=C(/CC)NCc1ccc(OCc2cnc(Cl)s2)c(OC)c1 | 21% |
| CCOCCOC(=O)/C(C#N)=C(\NCc1ccc(OCc2cnc(Cl)s2)cc1)C(C)C | 47.2% |
| CC/C(NCc1ccc(OCc2cnc(Cl)s2)c(OC)c1)=C(\C#N)C(=O)OCCOC | 0% |
| CCOCCOC(=O)/C(C#N)=C(\NCc1ccc(OCc2cnc(Cl)s2)cc1)SC | 55.6% |
| CCOCCOC(=O)/C(C#N)=C(/CC)NCc1ccc(OCc2cnc(Cl)s2)cc1 | 24.5% |

tested on: Amaranthus retroflexus; test: Post-emergence herbicidal activity against Amaranthus retroflexus at 1500 g/ha after 10 days; type: functional

| SMILES | Activity |
| --- | --- |
| CCOCCOC(=O)/C(C#N)=C(\NCc1ccc(OCc2cnc(Cl)s2)c(OC)c1)C(C)C | 100% |
| COCCOC(=O)/C(C#N)=C(\NCc1ccc(OCc2cnc(Cl)s2)c(OC)c1)C(C)C | 100% |
| COCCOC(=O)/C(C#N)=C(\NCc1ccc(OCc2cnc(Cl)s2)cc1)C(C)C | 91.6% |
| CCOCCOC(=O)/C(C#N)=C(/CC)NCc1ccc(OCc2cnc(Cl)s2)c(OC)c1 | 100% |
| CCOCCOC(=O)/C(C#N)=C(\NCc1ccc(OCc2cnc(Cl)s2)cc1)C(C)C | 91.6% |
| CC/C(NCc1ccc(OCc2cnc(Cl)s2)c(OC)c1)=C(\C#N)C(=O)OCCOC | 100% |
| CCOCCOC(=O)/C(C#N)=C(\NCc1ccc(OCc2cnc(Cl)s2)cc1)SC | 100% |
| CCOCCOC(=O)/C(C#N)=C(/CC)NCc1ccc(OCc2cnc(Cl)s2)cc1 | 96.3% |

tested on: Brassica napus; test: Post-emergence herbicidal activity against Brassica napus (oilseed rape) at 375 g/ha after 10 days; type: functional

| SMILES | Activity |
| --- | --- |
| CCOCCOC(=O)/C(C#N)=C(\NCc1ccc(OCc2cnc(Cl)s2)c(OC)c1)C(C)C | 73.5% |
| COCCOC(=O)/C(C#N)=C(\NCc1ccc(OCc2cnc(Cl)s2)c(OC)c1)C(C)C | 62.4% |
| COCCOC(=O)/C(C#N)=C(\NCc1ccc(OCc2cnc(Cl)s2)cc1)C(C)C | 92.8% |
| CCOCCOC(=O)/C(C#N)=C(/CC)NCc1ccc(OCc2cnc(Cl)s2)c(OC)c1 | 41.2% |
| CCOCCOC(=O)/C(C#N)=C(\NCc1ccc(OCc2cnc(Cl)s2)cc1)C(C)C | 51.2% |
| CC/C(NCc1ccc(OCc2cnc(Cl)s2)c(OC)c1)=C(\C#N)C(=O)OCCOC | 42.9% |
| CCOCCOC(=O)/C(C#N)=C(\NCc1ccc(OCc2cnc(Cl)s2)cc1)SC | 95.1% |
| CCOCCOC(=O)/C(C#N)=C(/CC)NCc1ccc(OCc2cnc(Cl)s2)cc1 | 40% |

tested on: Brassica napus; test: Pre-emergence herbicidal activity against Brassica napus (oilseed rape) at 1500 g/ha after 10 days; type: functional

| SMILES | Activity |
| --- | --- |
| CCOCCOC(=O)/C(C#N)=C(\NCc1ccc(OCc2cnc(Cl)s2)c(OC)c1)C(C)C | 0% |
| COCCOC(=O)/C(C#N)=C(\NCc1ccc(OCc2cnc(Cl)s2)c(OC)c1)C(C)C | 41.7% |
| COCCOC(=O)/C(C#N)=C(\NCc1ccc(OCc2cnc(Cl)s2)cc1)C(C)C | 0% |
| CCOCCOC(=O)/C(C#N)=C(/CC)NCc1ccc(OCc2cnc(Cl)s2)c(OC)c1 | 5% |
| CCOCCOC(=O)/C(C#N)=C(\NCc1ccc(OCc2cnc(Cl)s2)cc1)C(C)C | 0% |
| CC/C(NCc1ccc(OCc2cnc(Cl)s2)c(OC)c1)=C(\C#N)C(=O)OCCOC | 0% |
| CCOCCOC(=O)/C(C#N)=C(\NCc1ccc(OCc2cnc(Cl)s2)cc1)SC | 10% |
| CCOCCOC(=O)/C(C#N)=C(/CC)NCc1ccc(OCc2cnc(Cl)s2)cc1 | 0% |

tested on: Amaranthus retroflexus; test: Pre-emergence herbicidal activity against Amaranthus retroflexus at 1500 g/ha after 10 days; type: functional

| SMILES | Activity |
| --- | --- |
| CCOCCOC(=O)/C(C#N)=C(\NCc1ccc(OCc2cnc(Cl)s2)c(OC)c1)C(C)C | 0% |
| COCCOC(=O)/C(C#N)=C(\NCc1ccc(OCc2cnc(Cl)s2)c(OC)c1)C(C)C | 0% |
| COCCOC(=O)/C(C#N)=C(\NCc1ccc(OCc2cnc(Cl)s2)cc1)C(C)C | 0% |
| CCOCCOC(=O)/C(C#N)=C(/CC)NCc1ccc(OCc2cnc(Cl)s2)c(OC)c1 | 10% |
| CCOCCOC(=O)/C(C#N)=C(\NCc1ccc(OCc2cnc(Cl)s2)cc1)C(C)C | 0% |
| CC/C(NCc1ccc(OCc2cnc(Cl)s2)c(OC)c1)=C(\C#N)C(=O)OCCOC | 0% |
| CCOCCOC(=O)/C(C#N)=C(\NCc1ccc(OCc2cnc(Cl)s2)cc1)SC | 0% |
| CCOCCOC(=O)/C(C#N)=C(/CC)NCc1ccc(OCc2cnc(Cl)s2)cc1 | 0% |

tested on: Brassica napus; test: Post-emergence herbicidal activity against Brassica napus (oilseed rape) at 1500 g/ha after 10 days; type: functional

| SMILES | Activity |
| --- | --- |
| CCOCCOC(=O)/C(C#N)=C(\NCc1ccc(OCc2cnc(Cl)s2)c(OC)c1)C(C)C | 100% |
| COCCOC(=O)/C(C#N)=C(\NCc1ccc(OCc2cnc(Cl)s2)c(OC)c1)C(C)C | 100% |
| COCCOC(=O)/C(C#N)=C(\NCc1ccc(OCc2cnc(Cl)s2)cc1)C(C)C | 100% |
| CCOCCOC(=O)/C(C#N)=C(/CC)NCc1ccc(OCc2cnc(Cl)s2)c(OC)c1 | 98.3% |
| CCOCCOC(=O)/C(C#N)=C(\NCc1ccc(OCc2cnc(Cl)s2)cc1)C(C)C | 100% |
| CC/C(NCc1ccc(OCc2cnc(Cl)s2)c(OC)c1)=C(\C#N)C(=O)OCCOC | 96.6% |
| CCOCCOC(=O)/C(C#N)=C(\NCc1ccc(OCc2cnc(Cl)s2)cc1)SC | 100% |
| CCOCCOC(=O)/C(C#N)=C(/CC)NCc1ccc(OCc2cnc(Cl)s2)cc1 | 100% |

tested on: Medicago sativa; test: Post-emergence herbicidal activity against Medicago sativa (alfalfa) at 1500 g/ha after 10 days; type: functional

| SMILES | Activity |
| --- | --- |
| CCOCCOC(=O)/C(C#N)=C(\NCc1ccc(OCc2cnc(Cl)s2)c(OC)c1)C(C)C | 68.5% |
| COCCOC(=O)/C(C#N)=C(\NCc1ccc(OCc2cnc(Cl)s2)c(OC)c1)C(C)C | 71.1% |
| COCCOC(=O)/C(C#N)=C(\NCc1ccc(OCc2cnc(Cl)s2)cc1)C(C)C | 30% |
| CCOCCOC(=O)/C(C#N)=C(/CC)NCc1ccc(OCc2cnc(Cl)s2)c(OC)c1 | 41.9% |
| CCOCCOC(=O)/C(C#N)=C(\NCc1ccc(OCc2cnc(Cl)s2)cc1)C(C)C | 15% |
| CC/C(NCc1ccc(OCc2cnc(Cl)s2)c(OC)c1)=C(\C#N)C(=O)OCCOC | 46.8% |
| CCOCCOC(=O)/C(C#N)=C(\NCc1ccc(OCc2cnc(Cl)s2)cc1)SC | 0% |
| CCOCCOC(=O)/C(C#N)=C(/CC)NCc1ccc(OCc2cnc(Cl)s2)cc1 | 10% |

tested on: Amaranthus retroflexus; test: Post-emergence herbicidal activity against Amaranthus retroflexus at 750 g/ha after 10 days; type: functional

| SMILES | Activity |
| --- | --- |
| CCOCCOC(=O)/C(C#N)=C(\NCc1ccc(OCc2cnc(Cl)s2)c(OC)c1)C(C)C | 87.8% |
| COCCOC(=O)/C(C#N)=C(\NCc1ccc(OCc2cnc(Cl)s2)c(OC)c1)C(C)C | 89.8% |
| COCCOC(=O)/C(C#N)=C(\NCc1ccc(OCc2cnc(Cl)s2)cc1)C(C)C | 100% |
| CCOCCOC(=O)/C(C#N)=C(/CC)NCc1ccc(OCc2cnc(Cl)s2)c(OC)c1 | 30.9% |
| CCOCCOC(=O)/C(C#N)=C(\NCc1ccc(OCc2cnc(Cl)s2)cc1)C(C)C | 100% |
| CC/C(NCc1ccc(OCc2cnc(Cl)s2)c(OC)c1)=C(\C#N)C(=O)OCCOC | 32.9% |
| CCOCCOC(=O)/C(C#N)=C(\NCc1ccc(OCc2cnc(Cl)s2)cc1)SC | 91.6% |
| CCOCCOC(=O)/C(C#N)=C(/CC)NCc1ccc(OCc2cnc(Cl)s2)cc1 | 84.4% |

target: Photosystem II protein D1 (Spinacia oleracea) (UniProt P69560); test: Inhibition of photosystem II in Spinacia oleracea (spinach) chloroplast assessed as inhibition of hill reaction at 1 ug/ml relative to control

| SMILES | inhibition |
| --- | --- |
| CCOCCOC(=O)/C(C#N)=C(\NCc1ccc(OCc2cnc(Cl)s2)c(OC)c1)C(C)C | 93.8% |
| COCCOC(=O)/C(C#N)=C(\NCc1ccc(OCc2cnc(Cl)s2)c(OC)c1)C(C)C | 80.4% |
| COCCOC(=O)/C(C#N)=C(\NCc1ccc(OCc2cnc(Cl)s2)cc1)C(C)C | 82% |
| CCOCCOC(=O)/C(C#N)=C(/CC)NCc1ccc(OCc2cnc(Cl)s2)c(OC)c1 | 71.3% |
| CCOCCOC(=O)/C(C#N)=C(\NCc1ccc(OCc2cnc(Cl)s2)cc1)C(C)C | 72.5% |
| CC/C(NCc1ccc(OCc2cnc(Cl)s2)c(OC)c1)=C(\C#N)C(=O)OCCOC | 70.2% |
| CCOCCOC(=O)/C(C#N)=C(\NCc1ccc(OCc2cnc(Cl)s2)cc1)SC | 72.5% |
| CCOCCOC(=O)/C(C#N)=C(/CC)NCc1ccc(OCc2cnc(Cl)s2)cc1 | 70.2% |

tested on: Brassica napus; test: Post-emergence herbicidal activity against Brassica napus (oilseed rape) at 750 g/ha after 10 days; type: functional

| SMILES | Activity |
| --- | --- |
| CCOCCOC(=O)/C(C#N)=C(\NCc1ccc(OCc2cnc(Cl)s2)c(OC)c1)C(C)C | 100% |
| COCCOC(=O)/C(C#N)=C(\NCc1ccc(OCc2cnc(Cl)s2)c(OC)c1)C(C)C | 94.1% |
| COCCOC(=O)/C(C#N)=C(\NCc1ccc(OCc2cnc(Cl)s2)cc1)C(C)C | 100% |
| CCOCCOC(=O)/C(C#N)=C(/CC)NCc1ccc(OCc2cnc(Cl)s2)c(OC)c1 | 74.6% |
| CCOCCOC(=O)/C(C#N)=C(\NCc1ccc(OCc2cnc(Cl)s2)cc1)C(C)C | 100% |
| CC/C(NCc1ccc(OCc2cnc(Cl)s2)c(OC)c1)=C(\C#N)C(=O)OCCOC | 46.4% |
| CCOCCOC(=O)/C(C#N)=C(\NCc1ccc(OCc2cnc(Cl)s2)cc1)SC | 100% |
| CCOCCOC(=O)/C(C#N)=C(/CC)NCc1ccc(OCc2cnc(Cl)s2)cc1 | 100% |

tested on: Medicago sativa; test: Pre-emergence herbicidal activity against Medicago sativa (alfalfa) at 1500 g/ha after 10 days; type: functional

| SMILES | Activity |
| --- | --- |
| CCOCCOC(=O)/C(C#N)=C(\NCc1ccc(OCc2cnc(Cl)s2)c(OC)c1)C(C)C | 0% |
| COCCOC(=O)/C(C#N)=C(\NCc1ccc(OCc2cnc(Cl)s2)c(OC)c1)C(C)C | 42.9% |
| COCCOC(=O)/C(C#N)=C(\NCc1ccc(OCc2cnc(Cl)s2)cc1)C(C)C | 0% |
| CCOCCOC(=O)/C(C#N)=C(/CC)NCc1ccc(OCc2cnc(Cl)s2)c(OC)c1 | 0% |
| CCOCCOC(=O)/C(C#N)=C(\NCc1ccc(OCc2cnc(Cl)s2)cc1)C(C)C | 0% |
| CC/C(NCc1ccc(OCc2cnc(Cl)s2)c(OC)c1)=C(\C#N)C(=O)OCCOC | 2% |
| CCOCCOC(=O)/C(C#N)=C(\NCc1ccc(OCc2cnc(Cl)s2)cc1)SC | 0% |
| CCOCCOC(=O)/C(C#N)=C(/CC)NCc1ccc(OCc2cnc(Cl)s2)cc1 | 0% |

tested on: Brassica napus; test: Post-emergence herbicidal activity against Brassica napus (oilseed rape) after 10 days; type: functional

| SMILES | LD50 | LD90 |
| --- | --- | --- |
| CCOCCOC(=O)/C(C#N)=C(\NCc1ccc(OCc2cnc(Cl)s2)c(OC)c1)C(C)C | 131.42 g/ha | 484.4 g/ha |
| COCCOC(=O)/C(C#N)=C(\NCc1ccc(OCc2cnc(Cl)s2)c(OC)c1)C(C)C | 101.62 g/ha | 251.01 g/ha |
| COCCOC(=O)/C(C#N)=C(\NCc1ccc(OCc2cnc(Cl)s2)cc1)C(C)C | 53.48 g/ha | 146.04 g/ha |
| CCOCCOC(=O)/C(C#N)=C(/CC)NCc1ccc(OCc2cnc(Cl)s2)c(OC)c1 | 196.53 g/ha | 862.13 g/ha |
| CCOCCOC(=O)/C(C#N)=C(\NCc1ccc(OCc2cnc(Cl)s2)cc1)C(C)C | 73.01 g/ha | 185.4 g/ha |
| CC/C(NCc1ccc(OCc2cnc(Cl)s2)c(OC)c1)=C(\C#N)C(=O)OCCOC | 237.1 g/ha | 817.35 g/ha |
| CCOCCOC(=O)/C(C#N)=C(\NCc1ccc(OCc2cnc(Cl)s2)cc1)SC | 49.14 g/ha | 197.66 g/ha |
| CCOCCOC(=O)/C(C#N)=C(/CC)NCc1ccc(OCc2cnc(Cl)s2)cc1 | 83.96 g/ha | 311.43 g/ha |
